Reference: patent publication US20200181104A1, “SSAO INHIBITORS AND USES THEREOF” (METACRINE, INC., priority 2018, published 2020)
Where a name gives a salt, the structure may show the parent alone.

The molecules below were run against T1, Recombinant Human SSAO/VAP-1/AOC3 (Homo sapiens, UniProt Q16853) (assay: Human Semicarbazide-Sensitive Amine Oxidase (SSAO) Assay). Settings: recombinant enzyme, 30 minutes preincubation at 37° C., benzylamine substrate, Amplex Ultra Red/HRP fluorescence.
T1 construct: purchased R&D systems 3957-AO
T1 sequence (Q16853 1-763): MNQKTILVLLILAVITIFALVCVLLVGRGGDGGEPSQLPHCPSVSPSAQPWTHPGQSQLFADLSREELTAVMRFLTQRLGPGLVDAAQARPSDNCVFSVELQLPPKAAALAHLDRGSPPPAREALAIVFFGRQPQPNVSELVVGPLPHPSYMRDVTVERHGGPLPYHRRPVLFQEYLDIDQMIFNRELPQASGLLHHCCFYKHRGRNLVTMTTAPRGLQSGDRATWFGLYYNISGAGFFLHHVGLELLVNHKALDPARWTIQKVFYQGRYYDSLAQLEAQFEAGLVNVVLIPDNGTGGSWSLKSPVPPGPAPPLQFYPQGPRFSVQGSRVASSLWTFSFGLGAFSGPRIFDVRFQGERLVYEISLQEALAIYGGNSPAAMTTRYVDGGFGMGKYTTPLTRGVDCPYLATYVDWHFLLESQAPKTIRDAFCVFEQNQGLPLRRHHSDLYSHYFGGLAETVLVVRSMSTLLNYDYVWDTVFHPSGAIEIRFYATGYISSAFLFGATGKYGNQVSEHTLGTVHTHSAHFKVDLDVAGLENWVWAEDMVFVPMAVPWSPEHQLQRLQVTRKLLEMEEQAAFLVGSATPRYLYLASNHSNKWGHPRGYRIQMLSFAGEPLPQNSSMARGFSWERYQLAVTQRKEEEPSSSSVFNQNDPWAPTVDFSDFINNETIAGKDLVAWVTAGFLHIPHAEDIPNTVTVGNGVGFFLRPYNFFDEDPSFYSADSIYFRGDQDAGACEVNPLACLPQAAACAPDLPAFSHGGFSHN
Type: biochemical
Method in brief: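 IC50 from kinetic Amplex Ultra Red/HRP fluorescence (ex 544, em 590 nm, 30-120 min) after benzylamine addition. Beforehand, 6-10 compound dilutions were preincubated 30 min at 37 °C with recombinant human SSAO in 50 mM HEPES (enzyme working concentration 2.5 μg/ml).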
`NC/C(=C\F)COc1ccc(C23CCC(C(=O)N4CCC(OCCO)CC4)(CC2)CC3)cc1` [Compound 2.85, (E)-(4-(4-((2-(aminomethyl)-3-fluoroallyl)oxy)phenyl)bicyclo [2.2.2]octan-1-yl)(4-(2-hydroxyethoxy)piperidin-1-yl)methanone] was tested, and the IC50 was no more than 0.01 µM. For `COCC1(NC(=O)C23CCC(c4ccc(OC/C(=C/F)CN)cc4)(CC2)CC3)CCOCC1` [Compound 2.86, (E)-4-(4-((2-(aminomethyl)-3-fluoroallyl)oxy)phenyl)-N-(4-(methoxymethyl)tetrahydro-2H-pyran-4-yl)bicyclo[2.2.2]octane-1-carboxamide], the IC50 was no more than 0.01 µM. In the case of `CC1(NC(=O)C23CCC(c4ccc(OC/C(=C/F)CN)cc4)(CC2)CC3)CCOC1` (stereo not shown) [Compound 2.87, (E)-4-(4-((2-(aminomethyl)-3-fluoroallyl)oxy)phenyl)-N-(3-methyltetrahydrofuran-3-yl)bicyclo[2.2.2]octane-1-carboxamide], the IC50 is reported as no more than 0.01 µM. In the case of `CC(C)CNC(=O)C12CCC(c3ccc(OC/C(=C/F)CN)cc3)(CC1)CC2` [Compound 2.88, (E)-4-(4-((2-(aminomethyl)-3-fluoroallyl)oxy)phenyl)-N-isobutylbicyclo[2.2.2]octane-1-carboxamide], the IC50 is reported as no more than 0.01 µM. `CC(C)(O)CCNC(=O)C12CCC(c3ccc(OC/C(=C/F)CN)cc3)(CC1)CC2` [Compound 2.89, (E)-4-(4-((2-(aminomethyl)-3-fluoroallyl)oxy)phenyl)-N-(3-hydroxy-3-methylbutyl)bicyclo[2.2.2] octane-1-carboxamide] gave an IC50 of no more than 0.01 µM. For `COCCOC1CN(C(=O)C23CCC(c4ccc(OC/C(=C/F)CN)cc4)(CC2)CC3)C1` [Compound 2.90, (E)-(4-(4-((2-(aminomethyl)-3-fluoroallyl)oxy)phenyl)bicyclo [2.2.2]octan-1-yl)(3-(2-methoxyethoxy)azetidin-1-yl)methanone], the IC50 was no more than 0.01 µM. Work on `COC1CC(NC(=O)C23CCC(c4ccc(OC/C(=C/F)CN)cc4)(CC2)CC3)C1` (stereo not shown) [Compound 2.91, 4-(4-(((E)-2-(aminomethyl)-3-fluoroallyl)oxy)phenyl)-N-((1r,3r)-3-methoxycyclobutyl)bicyclo [2.2.2]octane-1-carboxamide] yielded an IC50 of no more than 0.01 µM. In the case of `COC1(CNC(=O)C23CCC(c4ccc(OC/C(=C/F)CN)cc4)(CC2)CC3)CCC1` [Compound 2.92, (E)-4-(4-((2-(aminomethyl)-3-fluoroallyl)oxy)phenyl)-N-((1-methoxycyclobutyl)methyl) bicyclo[2.2.2]octane-1-carboxamide], the IC50 is reported as no more than 0.01 µM. `NC/C(=C\F)COc1ccc(C23CCC(C(=O)NC45CC(O)(C4)C5)(CC2)CC3)cc1` [Compound 2.93, (E)-4-(4-((2-(aminomethyl)-3-fluoroallyl)oxy)phenyl)-N-(3-hydroxybicyclo[1.1.1]pentan-1-yl)bicyclo[2.2.2]octane-1-carboxamide] showed an IC50 of no more than 0.01 µM. Molecule `NC/C(=C\F)COc1ccc(C23CCC(C(=O)N4CC(OC(F)(F)F)C4)(CC2)CC3)cc1` [Compound 2.94, (E)-(4-(4-((2-(aminomethyl)-3-fluoroallyl)oxy)phenyl)bicyclo [2.2.2]octan-1-yl)(3-(trifluoromethoxy)azetidin-1-yl)methanone] has an IC50 of no more than 0.01 µM. In the case of `CO[C@H]1C[C@@H](NC(=O)C23CCC(c4ccc(OC/C(=C/F)CN)cc4)(CC2)CC3)C1` [Compound 2.95, 4-(4-(((E)-2-(Aminomethyl)-3-fluoroallyl)oxy)phenyl)-N-(cis-3-methoxycyclobutyl)bicyclo[2.2.2]octane-1-carboxamide Hydrochloride], the IC50 is reported as no more than 0.01 µM. For `NC/C(=C\F)COc1ccc(C23CCC(C(=O)NCC4(O)CCC4)(CC2)CC3)cc1` [Compound 2.96, (E)-4-(4-((2-(aminomethyl)-3-fluoroallyl)oxy)phenyl)-N-((1-hydroxycyclobutyl)methyl) bicyclo[2.2.2]octane-1-carboxamide], the IC50 was no more than 0.01 µM. Molecule `COC(C)(C)CNC(=O)C12CCC(c3ccc(OC/C(=C/F)CN)cc3)(CC1)CC2` [Compound 2.97, (E)-4-(4-((2-(aminomethyl)-3-fluoroallyl)oxy)phenyl)-N-(2-methoxy-2-methylpropyl)bicyclo[2.2.2] octane-1-carboxamide] has an IC50 of no more than 0.01 µM. `COC1(CNC(=O)C23CCC(c4ccc(OC/C(=C/F)CN)cc4)(CC2)CC3)CCOCC1` [Compound 2.98, (E)-4-(4-((2-(aminomethyl)-3-fluoroallyl)oxy)phenyl)-N-((4-methoxytetrahydro-2H-pyran-4-yl)methyl)bicyclo[2.2.2]octane-1-carboxamide] gave an IC50 of no more than 0.01 µM. `NC/C(=C\F)COc1ccc(C23CCC(C(=O)N4CC(O)(C5CC5)C4)(CC2)CC3)cc1` [Compound 2.99, (E)-(4-(4-((2-(aminomethyl)-3-fluoroallyl)oxy)phenyl)bicyclo [2.2.2]octan-1-yl)(3-cyclopropyl-3-hydroxyazetidin-1-yl)methanone] was tested, and the IC50 was no more than 0.01 µM. `NC/C(=C\F)COc1ccc(C23CCC(C(=O)NCC4(O)CCCC4)(CC2)CC3)cc1` [Compound 2.100, (E)-4-(4-((2-(aminomethyl)-3-fluoroallyl)oxy)phenyl)-N-((1-hydroxycyclopentyl)methyl) bicyclo[2.2.2]octane-1-carboxamide] gave an IC50 of no more than 0.01 µM. For `NC/C(=C\F)COc1ccc(C23CCC(C(=O)NCC4(O)CCCCC4)(CC2)CC3)cc1` [Compound 2.101, (E)-4-(4-((2-(aminomethyl)-3-fluoroallyl)oxy)phenyl)-N-((1-hydroxycyclohexyl)methyl) bicyclo[2.2.2]octane-1-carboxamide], the IC50 was no more than 0.01 µM. `COC1(CNC(=O)C23CCC(c4ccc(OC/C(=C/F)CN)cc4)(CC2)CC3)CCCCC1` [Compound 2.102, (E)-4-(4-((2-(aminomethyl)-3-fluoroallyl)oxy)phenyl)-N-((1-methoxycyclohexyl)methyl) bicyclo[2.2.2]octane-1-carboxamide] showed an IC50 of 0.01 to 0.1 µM. Molecule `CC(C)(C#N)CNC(=O)C12CCC(c3ccc(OC/C(=C/F)CN)cc3)(CC1)CC2` [Compound 2.103, (E)-4-(4-((2-(aminomethyl)-3-fluoroallyl)oxy)phenyl)-N-(2-cyano-2-methylpropyl)bicyclo[2.2.2] octane-1-carboxamide] has an IC50 of no more than 0.01 µM. `CC1(C)CC(NC(=O)C23CCC(c4ccc(OC/C(=C/F)CN)cc4)(CC2)CC3)CC(C)(C)O1` [Compound 2.105, (E)-4-(4-((2-(aminomethyl)-3-fluoroallyl)oxy)phenyl)-N-(2,2,6,6-tetramethyltetrahydro-2H-pyran-4-yl)bicyclo[2.2.2]octane-1-carboxamide] showed an IC50 of no more than 0.01 µM. `NC/C(=C\F)COc1ccc(C23CCC(C(=O)NC4CCC5(CC4)COC5)(CC2)CC3)cc1` [Compound 2.106, (E)-4-(4-((2-(aminomethyl)-3-fluoroallyl)oxy)phenyl)-N-(2-oxaspiro[3.5]nonan-7-yl)bicyclo[2.2.2]octane-1-carboxamide] gave an IC50 of no more than 0.01 µM. `NC/C(=C\F)COc1ccc(C23CCC(C(=O)NCCOC4CCOCC4)(CC2)CC3)cc1` [Compound 2.107] gave an IC50 of no more than 0.01 µM. `CC(C)(NC(=O)C12CCC(c3ccc(OC/C(=C/F)CN)cc3)(CC1)CC2)C1CCOCC1` [Compound 2.108, (E)-4-(4-((2-(aminomethyl)-3-fluoroallyl)oxy)phenyl)-N-(2-(tetrahydro-2H-pyran-4-yl)propan-2-yl)bicyclo[2.2.2]octane-1-carboxamide] was tested, and the IC50 was no more than 0.01 µM. Molecule `NC/C(=C\F)COc1ccc(C23CCC(C(=O)NCC(F)(F)F)(CC2)CC3)cc1` [Compound 2.109, (E)-4-(4-((2-(aminomethyl)-3-fluoroallyl)oxy)phenyl)-N-(2,2,2-trifluoroethyl)bicyclo [2.2.2]octane-1-carboxamide] has an IC50 of no more than 0.01 µM. `CO[C@H]1CCCN(C(=O)C23CCC(c4ccc(OC/C(=C/F)CN)cc4)(CC2)CC3)C1` [Compound 2.110, (S,E)-(4-(4-((2-(aminomethyl)-3-fluoroallyl)oxy)phenyl)bicyclo [2.2.2]octan-1-yl)(3-methoxypiperidin-1-yl)methanone] was tested, and the IC50 was no more than 0.01 µM. With `CO[C@@H]1CCCN(C(=O)C23CCC(c4ccc(OC/C(=C/F)CN)cc4)(CC2)CC3)C1` [Compound 2.111, (R,E)-(4-(4-((2-(aminomethyl)-3-fluoroallyl)oxy)phenyl)bicyclo [2.2.2]octan-1-yl)(3-methoxypiperidin-1-yl)methanone] the IC50 was no more than 0.01 µM. `NC/C(=C\F)COc1ccc(C23CCC(C(=O)NC4CCN(CC(F)(F)F)CC4)(CC2)CC3)cc1` [Compound 2.112, (E)-4-(4-((2-(aminomethyl)-3-fluoroallyl)oxy)phenyl)-N-(1-(2,2,2-trifluoroethyl)piperidin-4-yl)bicyclo[2.2.2]octane-1-carboxamide] showed an IC50 of no more than 0.01 µM. `NC/C(=C\F)COc1ccc(C23CCC(C(=O)NCC(F)F)(CC2)CC3)cc1` [Compound 2.113, (E)-4-(4-((2-(aminomethyl)-3-fluoroallyl)oxy)phenyl)-N-(2,2-difluoroethyl)bicyclo[2.2.2] octane-1-carboxamide] showed an IC50 of no more than 0.01 µM.
